Assay results reported in ChEMBL document CHEMBL4261615, “Design, synthesis, biological evaluation and cellular imaging of imidazo[4,5-b]pyridine derivatives as potent and selective TAM inhibitors” (Bioorg Med Chem, 2018).
Calls of active or inactive are those of the source. The calls are words filed in the database; no cut-off is given here.

Tests used:
[1] = biological target: T1, Tyrosine-protein kinase Mer (Homo sapiens, UniProt Q12866); assay: Inhibition of recombinant GST-tagged human Mer (578 to 872 residues) cytoplasmic domain expressed in Baculovirus system using poly (Glu-Ala-Tyr) peptide as substrate after 5 mins in presence of ADP by fluorescence analysis
T1 sequence (Q12866 whole entry): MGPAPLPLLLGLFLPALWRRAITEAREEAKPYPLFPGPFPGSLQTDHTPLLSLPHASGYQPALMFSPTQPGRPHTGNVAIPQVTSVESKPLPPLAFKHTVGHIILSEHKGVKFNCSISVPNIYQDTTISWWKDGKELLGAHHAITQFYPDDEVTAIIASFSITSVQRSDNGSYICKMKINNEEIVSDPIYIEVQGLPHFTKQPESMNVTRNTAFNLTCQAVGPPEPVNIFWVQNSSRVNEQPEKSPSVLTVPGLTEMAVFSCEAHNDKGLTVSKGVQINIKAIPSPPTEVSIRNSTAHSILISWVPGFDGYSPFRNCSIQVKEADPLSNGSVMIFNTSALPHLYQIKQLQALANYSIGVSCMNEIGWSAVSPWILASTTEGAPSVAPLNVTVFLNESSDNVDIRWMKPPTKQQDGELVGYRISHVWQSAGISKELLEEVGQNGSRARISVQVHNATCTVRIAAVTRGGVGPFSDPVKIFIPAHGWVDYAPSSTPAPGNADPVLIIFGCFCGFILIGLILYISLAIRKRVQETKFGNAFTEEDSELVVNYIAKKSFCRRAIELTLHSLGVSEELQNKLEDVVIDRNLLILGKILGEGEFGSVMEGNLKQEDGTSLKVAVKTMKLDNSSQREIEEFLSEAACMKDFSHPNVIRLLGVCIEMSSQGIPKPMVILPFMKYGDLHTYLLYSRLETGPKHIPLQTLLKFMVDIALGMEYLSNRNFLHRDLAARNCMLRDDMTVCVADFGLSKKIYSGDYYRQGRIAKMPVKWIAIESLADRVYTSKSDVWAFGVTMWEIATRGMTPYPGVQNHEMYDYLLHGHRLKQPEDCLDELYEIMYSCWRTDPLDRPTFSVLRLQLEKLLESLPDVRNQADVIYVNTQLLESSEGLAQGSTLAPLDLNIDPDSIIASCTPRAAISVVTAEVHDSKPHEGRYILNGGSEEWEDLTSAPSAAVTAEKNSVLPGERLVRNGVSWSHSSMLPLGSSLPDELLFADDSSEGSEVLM

[2] = biological target: T2, Aurora kinase A (Homo sapiens) (UniProt O14965); assay: Binding affinity to wild-type human partial length AURKA (E122 to K401 residues) expressed in mammalian expression system assessed as fraction of unbound kinase to substrate at 10 uM after 1 hr by KinomeScan assay
T2 sequence (whole entry): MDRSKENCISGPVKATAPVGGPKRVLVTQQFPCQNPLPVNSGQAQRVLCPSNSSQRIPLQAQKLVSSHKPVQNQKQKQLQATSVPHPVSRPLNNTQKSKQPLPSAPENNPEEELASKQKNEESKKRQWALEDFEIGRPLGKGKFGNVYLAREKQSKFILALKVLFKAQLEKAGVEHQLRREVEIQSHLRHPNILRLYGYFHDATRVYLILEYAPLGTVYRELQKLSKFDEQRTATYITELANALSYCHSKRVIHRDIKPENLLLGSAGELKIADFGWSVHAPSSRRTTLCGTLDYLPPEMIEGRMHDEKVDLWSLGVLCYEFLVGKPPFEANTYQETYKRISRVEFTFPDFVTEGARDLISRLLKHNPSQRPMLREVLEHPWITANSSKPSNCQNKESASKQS

[3] = biological target: Serine/threonine-protein kinase B-raf (Homo sapiens) (UniProt P15056); assay: Binding affinity to wild-type human partial length BRAF (S429 to E741 residues) expressed in mammalian expression system assessed as fraction of unbound kinase to substrate at 1 uM after 1 hr by KinomeScan assay
Chain of Serine/threonine-protein kinase B-raf (Homo sapiens) (P15056 whole entry, the tested form may be a part): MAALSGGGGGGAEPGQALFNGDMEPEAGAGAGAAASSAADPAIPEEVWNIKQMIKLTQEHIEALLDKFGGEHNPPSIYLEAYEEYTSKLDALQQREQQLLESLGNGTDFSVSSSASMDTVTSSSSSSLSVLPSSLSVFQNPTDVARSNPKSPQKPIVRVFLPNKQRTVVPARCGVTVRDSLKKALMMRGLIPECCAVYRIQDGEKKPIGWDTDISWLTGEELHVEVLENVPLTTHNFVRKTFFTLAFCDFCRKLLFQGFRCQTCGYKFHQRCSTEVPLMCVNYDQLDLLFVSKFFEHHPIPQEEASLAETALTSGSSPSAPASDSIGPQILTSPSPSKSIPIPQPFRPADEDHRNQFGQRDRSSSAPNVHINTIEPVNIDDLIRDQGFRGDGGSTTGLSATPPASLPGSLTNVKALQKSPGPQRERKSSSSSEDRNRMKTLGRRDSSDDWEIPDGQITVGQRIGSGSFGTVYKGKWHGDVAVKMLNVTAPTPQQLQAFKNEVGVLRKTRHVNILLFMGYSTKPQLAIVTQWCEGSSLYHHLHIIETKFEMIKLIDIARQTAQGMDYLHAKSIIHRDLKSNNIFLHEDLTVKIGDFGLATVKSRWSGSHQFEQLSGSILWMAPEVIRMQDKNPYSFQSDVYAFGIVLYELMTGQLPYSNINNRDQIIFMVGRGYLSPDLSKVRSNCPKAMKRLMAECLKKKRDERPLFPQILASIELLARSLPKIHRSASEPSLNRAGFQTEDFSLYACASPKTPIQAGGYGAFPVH

[4] = biological target: Cyclin-dependent kinase 2 (Homo sapiens) (UniProt P24941); assay: Binding affinity to wild-type human full length CDK2 (M1 to L298 residues) expressed in bacterial expression system assessed as fraction of unbound kinase to substrate at 1 uM after 1 hr by KinomeScan assay
[5] = biological target: Fibroblast growth factor receptor 1 (Homo sapiens) (UniProt P11362); assay: Binding affinity to wild-type human partial length FGFR1 (P357 to V669 residues) expressed in bacterial expression system assessed as fraction of unbound kinase to substrate at 0.1 uM after 1 hr by KinomeScan assay
Chain of Fibroblast growth factor receptor 1 (Homo sapiens) (P11362 22-822 limits assumed): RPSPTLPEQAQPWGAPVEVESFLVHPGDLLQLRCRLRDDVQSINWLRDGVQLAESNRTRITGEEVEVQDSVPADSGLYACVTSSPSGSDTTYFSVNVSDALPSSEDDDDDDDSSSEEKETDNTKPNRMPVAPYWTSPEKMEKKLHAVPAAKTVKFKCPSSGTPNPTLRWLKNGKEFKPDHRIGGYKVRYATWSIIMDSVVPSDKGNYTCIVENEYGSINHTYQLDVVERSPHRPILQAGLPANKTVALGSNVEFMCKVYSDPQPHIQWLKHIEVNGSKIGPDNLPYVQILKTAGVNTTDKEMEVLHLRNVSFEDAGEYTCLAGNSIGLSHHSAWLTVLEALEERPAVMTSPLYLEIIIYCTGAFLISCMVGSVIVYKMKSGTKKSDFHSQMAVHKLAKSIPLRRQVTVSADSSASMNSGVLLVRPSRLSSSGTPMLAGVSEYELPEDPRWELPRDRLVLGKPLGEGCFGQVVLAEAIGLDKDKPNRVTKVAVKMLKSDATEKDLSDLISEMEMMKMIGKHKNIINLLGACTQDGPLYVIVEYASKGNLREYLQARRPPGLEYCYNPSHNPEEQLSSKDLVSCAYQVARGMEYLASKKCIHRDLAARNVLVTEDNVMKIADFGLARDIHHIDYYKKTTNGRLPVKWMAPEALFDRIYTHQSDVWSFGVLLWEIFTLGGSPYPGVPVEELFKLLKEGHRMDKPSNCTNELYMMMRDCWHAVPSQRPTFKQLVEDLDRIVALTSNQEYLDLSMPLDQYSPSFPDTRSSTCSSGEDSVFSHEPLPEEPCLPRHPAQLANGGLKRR

[6] = biological target: Cyclin-dependent kinase 2 (Homo sapiens) (UniProt P24941); assay: Binding affinity to wild-type human full length CDK2 (M1 to L298 residues) expressed in bacterial expression system assessed as fraction of unbound kinase to substrate at 10 uM after 1 hr by KinomeScan assay
[7] = biological target: Epidermal growth factor receptor (Homo sapiens) (UniProt P00533); assay: Binding affinity to partial length wild type human EGFR (R669 to V1011 residues) expressed in bacterial expression system assessed as fraction of unbound kinase to substrate at 0.1 uM after 1 hr by KinomeScan assay
Chain of Epidermal growth factor receptor (Homo sapiens) (P00533 whole entry, the tested form may be a part): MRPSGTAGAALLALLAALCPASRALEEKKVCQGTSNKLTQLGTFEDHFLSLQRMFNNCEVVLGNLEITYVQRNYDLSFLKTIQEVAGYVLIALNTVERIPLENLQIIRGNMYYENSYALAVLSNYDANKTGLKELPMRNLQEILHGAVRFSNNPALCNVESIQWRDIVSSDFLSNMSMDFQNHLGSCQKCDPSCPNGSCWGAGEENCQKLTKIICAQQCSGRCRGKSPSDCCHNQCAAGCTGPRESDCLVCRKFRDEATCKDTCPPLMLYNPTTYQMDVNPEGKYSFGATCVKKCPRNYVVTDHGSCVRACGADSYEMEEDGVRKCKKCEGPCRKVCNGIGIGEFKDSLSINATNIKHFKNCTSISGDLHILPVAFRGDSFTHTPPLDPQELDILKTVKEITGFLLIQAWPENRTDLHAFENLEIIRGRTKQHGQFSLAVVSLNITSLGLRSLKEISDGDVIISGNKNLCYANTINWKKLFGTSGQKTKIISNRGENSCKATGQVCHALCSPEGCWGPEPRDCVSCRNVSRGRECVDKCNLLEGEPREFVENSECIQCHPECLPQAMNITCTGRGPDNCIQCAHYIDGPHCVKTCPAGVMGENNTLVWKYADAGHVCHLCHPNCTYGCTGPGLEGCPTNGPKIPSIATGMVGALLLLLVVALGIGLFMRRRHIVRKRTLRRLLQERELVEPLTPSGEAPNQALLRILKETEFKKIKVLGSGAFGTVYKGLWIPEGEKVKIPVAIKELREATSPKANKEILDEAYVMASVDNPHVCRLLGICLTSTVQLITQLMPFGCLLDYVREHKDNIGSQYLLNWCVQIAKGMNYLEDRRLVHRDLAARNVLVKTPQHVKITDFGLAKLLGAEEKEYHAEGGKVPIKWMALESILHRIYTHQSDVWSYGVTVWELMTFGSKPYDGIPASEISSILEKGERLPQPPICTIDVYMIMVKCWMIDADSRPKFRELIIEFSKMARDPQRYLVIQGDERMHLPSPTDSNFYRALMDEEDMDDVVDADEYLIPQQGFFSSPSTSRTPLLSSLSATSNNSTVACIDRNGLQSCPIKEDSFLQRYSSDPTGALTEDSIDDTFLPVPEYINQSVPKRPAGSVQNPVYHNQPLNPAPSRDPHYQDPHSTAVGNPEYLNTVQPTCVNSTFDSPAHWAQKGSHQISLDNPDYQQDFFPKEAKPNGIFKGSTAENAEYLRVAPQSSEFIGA

RT-112 = assay: Antiproliferative activity against human RT112 cells after 72 hrs by CellTiter-Glo assay; type: functional, cell-based

IC50 [1]	Activity [2]	Activity [3]	Activity [4]	Activity [5]	Activity [6]	Activity [7]	SMILES	Activity (RT-112)
0.009 µM	45%	0%	0%	7%	32%	0%	O=C(Nc1ccc(Oc2c(Br)cnc3[nH]cnc23)c(F)c1)c1cccn(-c2ccc(F)cc2)c1=O	–
0.09 µM	13%	12%	0%	1%	48%	0%	O=C(Nc1ccc(Oc2ccnc3[nH]cnc23)c(F)c1)c1cccn(-c2ccc(F)cc2)c1=O	inactive
> 100 µM	41%	2%	0%	8%	3%	1%	Cc1cnc2[nH]cnc2c1Oc1ccc(NC(=O)c2cccn(-c3ccc(F)cc3)c2=O)cc1F	inactive
0.04 µM	12%	8%	95.5%	7%	99.7%	2%	CC(C)c1nc2c(Oc3ccc(NC(=O)c4cccn(-c5ccc(F)cc5)c4=O)cc3F)ccnc2[nH]1	inactive
